Experimental data taken from PubChem BioAssay AID686936 (Broad Institute, 2013).

Tested on: LuxO (D47E) transcriptional regulator, Vibrio cholerae O395
Assay: PubChem AID 686936
Details: stronger effect = lower value
[1] = PK/LDH coupled NADH A340, at 100 µM
[2] = PK/LDH coupled NADH A340, rate, at 1 µM
[3] = PK/LDH coupled NADH A340, rate, at 25 µM

| Structure (SMILES) | ATPase rate (delta OD340/min) [1] | ATPase rate (delta OD340/min) [2] | ATPase rate (delta OD340/min) [3] |
| --- | --- | --- | --- |
| Cc1ccc2cc3c(NC(=O)c4ccco4)nn(C)c3nc2c1 | 0.00981 | 0.0527 | 0.0182 |
| O=C(Nc1nnc(-c2ccc3c(c2)OCCO3)o1)C1CCCCC1 | 0.0424 | 0.0644 | 0.0279 |
